Measured values taken from patent US20220390458A1, “FLUORESCENT PROBE AND APPLICATIONS THEREOF” (CENTRE NATIONAL DE LA RECHERCHE SCIENTIFIQUE (CNRS), priority 2019, published 2022).

How the values were obtained:
[1] = DIOLL probe fluorescence-based liposome quantification; conditions: POPC liposomes; 21° C.; excitation 390 nm
Experimental: A POPC solution of known concentration (100 μg.ml^−1) was used as standard. Increasing volumes of the standard solution were diluted with buffer in a 96 well plate (Nunc). The final volume per well was 200 μl and lipid concentrations between 0 and 80 μg.ml^−1 were used. Samples were prepared in parallel to a final volume of 200 μl per well.
A constant volume of DIOLL solution in ethanol (5 μl) was added in each well to obtain a final DIOLL concentration of 2 μM. The volume of ethanol added represented 2.5% of the final volume and had no effect on liposome integrity. The plate was incubated at room temperature for 10 min. Fluorescence emission spectra were recorded between 420 nm and 600 nm for an excitation wavelength of 390 nm with a TECAN InfiniteM200 plate reader. Spectra were recorded at 21° C.
The surface under the spectrum was calculated for each condition using an Excel complementary function, IntegralP (www.fordom.free.fr) which allows one to calculate the integral of a function when discrete data sets are available. Maximum fluorescence intensities or surfaces under the curve were plotted as a function of the lipid concentration to obtain the standard curve. […]
To conclude upon the repeatability of the method, the coefficient of variation (CV) was calculated as the percentage of the standard deviation on the mean of 5 independent measurements. […]

[2] = DIOLL fluorescence in DPPC liposomes (plate reader, quantification method); type: physicochemical; conditions: 21° C., excitation 390 nm
Experimental: (§1) Liposomes were prepared using a classical freeze/thaw protocol. Briefly, the appropriate lipid mixture solubilized in chloroform was dried under vacuum, then solubilized with 1 ml buffer under strong agitation. Assays were done either in HEPES 20 mM pH 7.4 buffer 100 mM NaCl or in PBS. The liposome emulsion obtained was submitted to 6 freeze/thaw cycles (5 min in liquid nitrogen/10 min in a water bath at 37° C., 1 minute strong agitation) to decrease the number of bilayers and obtain unilamellar vesicles. To obtain homogenous vesicles, the liposome solution was extruded successively through a 400 nm and 100 nm polycarbonate membrane using an extruder (Avanti Polar Lipids). Liposomes were routinely prepared at lipid concentrations between 1 and 10 mg.ml^−1 and subsequently diluted at the desired concentration. A constant volume of DIOLL solution in ethanol (5 μl) was added in each well to obtain a final DIOLL concentration of 2 μM. The volume of ethanol added represented 2.5% of the final volume and had no effect on liposome integrity. The plate was incubated at room temperature for 10 min. Fluorescence emission spectra were recorded between 420 nm and 600 nm for an excitation wavelength of 390 nm with a TECAN InfiniteM200 plate reader. Spectra were recorded at 21° C.

[3] = test system: influenza virus membranes; assay: Labeling of viral membranes and GP calculation; conditions: 21° C.; excitation 390 nm
[4] = Probe fluorescence in DMPC liposomes as a function of temperature (5 to 65° C.); type: physicochemical; conditions: for maximum emission wavelength, liquid crystalline phase: above phase transition temperature; for maximum emission wavelength, liquid crystalline phase / maximum emission wavelength, gel phase: excitation 385 nm; for maximum emission wavelength, gel phase: below phase transition temperature
Experimental: Liposomes were prepared in PBS buffer using a classical freeze/though protocol. In brief, lipids dissolved in chloroform were dried under vacuum. The lipid film formed was rehydrated with the PBS solution and agitated until the complete suspension of the lipid film. The vesicle solution was then submitted to 6 freeze/thaw (5 min in liquid nitrogen/10 min in 37° C. water bath) cycles and then extruded 19 times sequentially trough 400 nm and 200 nm polycarbonate membranes (Avanti Polar Lipids Liposome Extruder). The 200 nm liposome suspension was stored at 4° C.
Fluorescence data was obtained using a Hitachi F4500 fluorometer. Emission spectra were recorded between 420 and 600 nm with an excitation wavelength fixed at 385 nm and 5 nm excitation and emission slits. Ethanol solutions of fluorescent probes were prepared and added to liposomes at a 1:400 (probe: phospholipid) molar ratio. Liposomes were used at a 40 μg.mL^−1 final concentration. Measurements were done at 21° C. for all liposome compositions indicated in Table 2, except for DMPC where a range of temperature from 5 to 65° C. was also applied.
The spectral shift described above was quantified by calculation of the Generalized Polarization (GP) parameter. This parameter provides a quantitative index of membrane fluidity and is calculated as the difference between fluorescence emission intensity at a 440 nm (lipids with gel properties) and the intensity at 490 nm (wavelength evidenced in lipids with liquid crystal properties), divided by the sum of these two intensities. The GP parameter was thus calculated from fluorescence emission intensities according to the following formula: […]
where Igel and Ilc are, respectively, intensities of fluorescence at wavelengths characteristic of probe emission, respectively in gel and liquid crystal lipid phases.

[5] = Probe fluorescence in organic solvents of increasing polarity; type: physicochemical; conditions: 25° C., 2.6 μM probes
Experimental: Fluorescence measurements were performed with a Hitachi F4500 fluorometer. Excitation and emission slits were fixed at 5 nm and spectra were recorded at 25° C. using a 1 cm path length thermostated quartz micro-cuvette. 0.26 mM solutions of the probes were prepared in a dichloromethane: methanol mixture (3:1 volume ratio). Measurements were performed with […] probes diluted in the different solvents (see Table 1). The initial solvent of the stock solution thus represents 1% of the final volume.

[6] = Probe fluorescence intensity in POPC liposomes; type: physicochemical; conditions: 25° C., final concentration 0.2 μM
[7] = DIOLL fluorescence in DMPC liposomes (plate reader, quantification method); type: physicochemical; conditions: 21° C., excitation 390 nm
Experimental: as §1

[8] = Determination of nanoemulsion (NE) fluidity with DIOLL probe; type: physicochemical
[9] = carboxylic group; cited from earlier work
[10] = cited from earlier work
[11] = literature; cited from earlier work

Compound | gel over liquid crystalline ratio of fluorescence intensity [4] | inflexion point of first derivative of GP vs temperature [4] [°C] | maximum emission wavelength, liquid crystalline phase [4] | maximum emission wavelength, gel phase [4] [nm] | Maximum fluorescence intensity ([5]; Chloroform) [A. U.] | λ emission maximum ([5]; Chloroform) [nm] | Maximum fluorescence intensity ([5]; DMSO) [A. U.] | λ emission maximum ([5]; DMSO) [nm] | Maximum fluorescence intensity ([5]; Ethanol) [A. U.] | λ emission maximum ([5]; Ethanol) [nm] | Maximum fluorescence intensity ([5]; Toluene) [A. U.] | λ emission maximum ([5]; Toluene) [nm] | emission maximum, gel phase membranes [11] [nm] | emission maximum, liquid crystalline phase membranes [11] [nm] | other results
CCCCCCCCCCCC(=O)c1ccc2cc(N(C)CC(O)CO)ccc2c1 (stereo not shown) [DIOLL, 1-(6-((2,3-dihydroxypropyl)(methyl)amino)naphthalen-2-yl)dodecan-1-one] | 0.8 | 23 | 490 nm | 440 | 5041 | 424 | 9384 | 441 | 7647 | 486 | 5041 | 424 |  |  | fluorescence intensity emission maximum [1]: 490 nm; maximum fluorescence emission [2]: 440 nm; maximum fluorescence intensity wavelength [3]: 440 nm; λ emission maximum ([5]; Chloroform, listed as DIOLL probe): 441 nm; λ emission maximum ([5]; DMSO, listed as DIOLL probe): 460 nm; λ emission maximum ([5]; Toluene, listed as DIOLL probe): 425 nm; fluorescence intensity, fold higher than that of Laurdan and C-Laurdan [6]: 7 fold; maximum fluorescence emission [7]: 440 nm; fluorescence emission peak dissolved in MCT ([8]; 2.6 μM in MCT, single peak): 440 nm; fluorescence emission dissolved in water ([8]; 2.6 μM in water): no fluorescence emission was detected
CCCCCCCCCCCC(=O)c1ccc2cc(N(C)CC(=O)O)ccc2c1 [C-Laurdan, 6-Dodecanoyl-2-[N-methyl-N-(carboxymethyl)amino] naphthalene] |  |  |  |  | 3115 | 432 | 2428 | 450 | 1491 | 485 | 359 | 416 |  |  | pKa [9]: 6.6
CCCCCCCCCCCC(=O)c1ccc2cc(N(C)C)ccc2c1 [Laurdan, 6-dodecanoyl-2-dimethylaminonaphthalene] | 0.6 | 23 | around 490 nm | 440 | 4441 | 440 | 5533 | 460 | 4221 | 485 | 3814 | 423 | 440 | 490 | solubility in aqueous buffers [10]: low solubility in aqueous buffers; fluorescence emission peak when incubated with NE solution ([8]; single peak): 440 nm
CCCCN(CCCC)c1ccc2cc(/C=C/c3cc[n+](CC(O)C[N+](C)(C)CCO)cc3)ccc2c1.[Br-].[Br-] (stereo not shown) [Di-4-ANEPPDHQ] |  |  |  |  |  |  |  |  |  |  |  |  | 560 | 610 | 
